Assay results from the supplement of paper PMC10307832.

Experiments:
GSK-J4 = compound: CCOC(=O)CCNc1cc(N2CCc3ccccc3CC2)nc(-c2ccccn2)n1 [GSK-J4]; experiment: relative viability (nuclei count vs DMSO), 5 days (fraction); higher = more cells survive
Method in brief: (§1)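 Acceptance criteria were a control CV below 25% and at least one doubling per plate. Lung cancer cell lines in 1536-well plates got five library-drug doses (not always all listed) √10 apart by pinning and were left 5 days with no medium change. Viability divides treated-well nuclei by vehicle-well nuclei and is the median across plates. Nuclei were counted by MetaXpress from 4× Hoechst images.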

AZ3146 = compound: CN1CCC(CC1)OC2=CC(=C(C=C2)NC3=NC=C4C(=N3)N(C(=O)N4C)C5CCCC5)OC [AZ3146]; experiment: as above
Method in brief: as §1

Cell Line | relative viability (GSK-J4; 0.5 µM) | relative viability (GSK-J4; 1.581 µM) | relative viability (GSK-J4; 5 µM) | relative viability (GSK-J4; 15.81 µM) | relative viability (GSK-J4; 50 µM) | relative viability (AZ3146; 0.08 µM) | relative viability (AZ3146; 0.253 µM) | relative viability (AZ3146; 0.8 µM) | relative viability (AZ3146; 2.53 µM) | relative viability (AZ3146; 8 µM)
201T | 1.01 | 0.983 | 0.928 | 0.947 | 0.943 | 0.997 | 0.993 | 0.941 | 0.964 | 0.983
A549 | 0.981 | 0.731 | 0.862 | 0.838 | 0.924 | 0.852 | 0.988 | 1.03 | 0.952 | 0.462
A-427 | 1 |  | 0.766 | 0.865 | 0.37 | 0.963 | 1 | 1.01 | 1.04 | 0.766
ABC-1 | 1.04 | 0.869 | 0.803 | 0.797 | 0.403 | 0.892 | 0.901 | 1.02 | 1.02 | 0.867
BEN | 1.06 | 0.864 |  | 0.876 | 0.788 |  | 0.898 | 0.886 | 0.989 | 0.943
CAL-12T | 0.94 | 0.838 | 1.05 | 0.93 | 0.834 | 1.03 | 0.978 | 1.07 | 1.09 | 0.776
COR-L23 | 0.965 | 0.894 |  | 1 | 0.852 | 0.928 | 1.03 | 1.03 | 0.974 | 0.977
COR-L 105 | 0.925 | 0.864 | 0.795 | 0.949 | 0.861 | 0.82 | 0.874 | 0.939 | 0.825 | 0.504
Calu-6 | 0.979 | 0.945 | 0.941 | 0.983 | 1.01 | 0.964 | 1.03 | 0.948 | 0.948 | 0.799
ChaGo-K-1 | 0.986 |  | 0.993 | 0.974 | 0.918 | 0.942 | 0.885 | 0.964 | 1.04 | 0.741
EBC-1 | 0.817 | 0.892 | 0.96 | 0.961 | 0.668 | 0.915 | 0.938 | 0.884 | 0.979 | 0.602
EKVX | 0.998 | 0.71 | 1.03 | 0.85 | 0.898 | 0.954 | 0.999 | 0.93 | 1 | 1.04
EMC-BAC-2 | 0.971 | 0.909 | 0.647 | 0.882 | 0.955 | 0.772 | 0.76 | 1.07 | 1.1 | 0.907
EPLC-272H | 0.994 | 0.678 | 0.93 | 0.814 | 0.734 | 0.789 | 0.895 | 0.92 | 0.992 | 0.969
H3255 | 0.997 | 0.869 | 0.91 | 0.811 | 0.854 | 0.935 | 0.902 | 1.01 | 1.09 | 0.981
HARA | 1.06 | 0.959 |  | 0.881 | 1.05 | 0.808 | 0.902 | 1.01 | 1.07 | 0.866
HCC-15 | 0.929 | 0.716 | 0.927 | 0.895 | 0.767 | 0.98 | 1.05 | 0.993 | 1.03 | 0.99
HCC-44 | 1.01 | 0.864 | 0.861 | 1.02 | 1.01 | 0.969 | 0.917 | 1.09 | 1.02 | 0.89
HCC-78 | 1.06 | 0.946 | 1.14 | 0.728 | 0.92 |  | 1.01 | 0.864 | 0.989 | 0.956
HCC-366 | 1.03 | 0.851 |  | 0.988 | 0.989 | 0.9 | 0.939 | 1.02 | 0.973 | 0.988
HCC-827 | 1.01 | 0.902 | 0.839 | 1 | 1.02 | 1.04 | 0.998 | 0.987 | 0.939 | 1.04
HOP-62 | 1 | 0.835 | 1.04 | 0.987 | 0.749 | 0.958 | 0.986 | 0.98 | 1.03 | 0.956
IA-LM | 0.887 | 0.84 | 1.17 | 0.821 | 0.315 | 0.971 | 0.998 | 0.987 | 0.957 | 0.742
LC-2-ad | 0.988 | 0.807 | 0.787 | 0.933 | 0.903 | 0.895 | 1.04 | 0.979 | 0.967 | 0.91
LCLC-97TM1 | 0.865 | 0.753 | 1.05 | 0.608 | 0.755 | 0.836 | 1.01 | 0.932 | 1.1 | 0.751
LCLC-103H | 1.07 | 0.883 | 0.908 | 0.954 | 0.94 | 0.974 | 0.949 | 0.974 | 0.995 | 0.965
LK-2 | 1.07 | 0.886 | 1.22 | 0.756 | 1 | 0.743 | 0.782 | 0.961 | 1.08 | 1.05
LOU-NH91 | 1.12 | 1.03 | 0.724 | 0.868 | 0.952 | 1.01 | 0.935 | 0.957 | 0.986 | 0.96
LU99A | 0.819 | 0.872 |  | 0.884 | 0.756 | 0.783 | 1.04 | 0.989 | 0.964 | 1.11
LXF-289 | 1.02 | 0.903 | 0.967 | 1.02 | 0.983 | 0.944 | 0.991 | 0.989 | 1.02 | 0.982
